Assay results taken from PMC9551036, “A selective and orally bioavailable VHL-recruiting PROTAC achieves SMARCA2 degradation in vivo” (Nature Communications, 2022).
Several values for one entry are separate records, joined by “and”; a condition that tells them apart may be missing. Identical values can stand only once. Entries after “also recorded” stand apart in the source; their conditions may differ.

Molecular target: SMARCA2 (Homo sapiens, UniProt P51531)
Test: SMARCA2 IHC in NCI-H1568 xenograft tumours
Assay type: in vivo, mouse
Set-up: from tissue; host or cells: subcutaneous NCI-H1568 or A549 xenograft tumours in BomTac:NMRI-Foxn1nu mice
Experimental: To establish subcutaneous tumours, mice were injected with 5 × 10^6 NCI-H1568 in PBS with 5% FCS or with 1 × 10^7 A549 cells in PBS with 5% FCS. Tumour diameters were measured with a caliper three times a week. The volume of each tumour (in mm^3) was calculated according to the formula [tumour volume = length × diameter^2 × π/6]. To monitor side effects of treatment, mice were inspected daily for abnormalities and body weight was determined daily after the start of treatment. Animals were sacrificed when the tumours reached a size of 1500 mm^3. Mice were randomised into treatment groups when the average tumour size reached ~210–220 mm^3. Group sizes were calculated individually for each tumour model based on tumour growth during model establishment experiments. A power analysis was performed using a sample size calculator (https://www.stat.ubc.ca/~rollin/stats/ssize/n2.html). For both models used in the study, 10 mice per group were used for each experiment. All administrations were dosed with 10 ml/kg (s.c. and oral). Control mice were dosed subcutaneously with 10% HP-β-CD in 50% Ringer solution and orally with 15% HP-β-CD, that means the control mouse treatment was corresponding to the solvent of the compounds. Compound 6 was dosed subcutaneously either in a d1-4 q3d, d6-8 q2d, d11-13 q2d treatment (Treatment 1) or a q3 or 4d treatment (Treatment 2).
Xenograft samples were fixed in 10% formaldehyde for 24 h and later moved to ethanol and embedded in paraffin. 2 µm-thick sections were cut using a microtome, then placed on glass slides ([…], silan printer slides PR-S:001), and subsequently dewaxed. SMARCA2 immunohistochemistry was carried out on the Leica BOND RX platform (Leica Biosystems) according to manufacturer’s instructions using a human-specific SMARCA2 antibody (Cell Signalling #11966 clone D9E8B RRID:AB_2797783 1:400) where the tissue underwent a heat-induced epitope retrieval for 20 min. After staining, the slides were cover-slipped with Shandon Consul-Mount glass covers, scanned using a slide scanner (3D HISTECH Ltd.). All slides were reviewed and evaluated for quality by a board-certified MD specialist in Anatomic Pathology (PC). Imaging analysis was performed using the digital pathology platform HALO (Indica Labs). A tissue-classifying algorithm was trained to selectively recognise viable tumour tissue against stroma, necrosis, and skin. The tissue classification output for each scan was reviewed and manually edited as necessary. A cell detection and scoring algorithm was trained to measure DAB optical density (OD) in the nuclei of tumour cells. A positivity threshold for DAB OD was determined by normalisation with respect to the DAB OD as calculated from bona fide negative tissue (e.g. murine stroma as background). The average, background-normalised DAB OD of tumour cell nuclei was used to quantitate SMARCA2 expression in each xenograft sample.

[1] = NCI-H1568 xenograft, 30 mg/kg po, qd, end of study, individual tumours, 30 mg/kg
[2] = NCI-H1568 xenograft, 100 mg/kg, PO, 48 h, individual tumours

Sequence of SMARCA2 (P51531 whole entry): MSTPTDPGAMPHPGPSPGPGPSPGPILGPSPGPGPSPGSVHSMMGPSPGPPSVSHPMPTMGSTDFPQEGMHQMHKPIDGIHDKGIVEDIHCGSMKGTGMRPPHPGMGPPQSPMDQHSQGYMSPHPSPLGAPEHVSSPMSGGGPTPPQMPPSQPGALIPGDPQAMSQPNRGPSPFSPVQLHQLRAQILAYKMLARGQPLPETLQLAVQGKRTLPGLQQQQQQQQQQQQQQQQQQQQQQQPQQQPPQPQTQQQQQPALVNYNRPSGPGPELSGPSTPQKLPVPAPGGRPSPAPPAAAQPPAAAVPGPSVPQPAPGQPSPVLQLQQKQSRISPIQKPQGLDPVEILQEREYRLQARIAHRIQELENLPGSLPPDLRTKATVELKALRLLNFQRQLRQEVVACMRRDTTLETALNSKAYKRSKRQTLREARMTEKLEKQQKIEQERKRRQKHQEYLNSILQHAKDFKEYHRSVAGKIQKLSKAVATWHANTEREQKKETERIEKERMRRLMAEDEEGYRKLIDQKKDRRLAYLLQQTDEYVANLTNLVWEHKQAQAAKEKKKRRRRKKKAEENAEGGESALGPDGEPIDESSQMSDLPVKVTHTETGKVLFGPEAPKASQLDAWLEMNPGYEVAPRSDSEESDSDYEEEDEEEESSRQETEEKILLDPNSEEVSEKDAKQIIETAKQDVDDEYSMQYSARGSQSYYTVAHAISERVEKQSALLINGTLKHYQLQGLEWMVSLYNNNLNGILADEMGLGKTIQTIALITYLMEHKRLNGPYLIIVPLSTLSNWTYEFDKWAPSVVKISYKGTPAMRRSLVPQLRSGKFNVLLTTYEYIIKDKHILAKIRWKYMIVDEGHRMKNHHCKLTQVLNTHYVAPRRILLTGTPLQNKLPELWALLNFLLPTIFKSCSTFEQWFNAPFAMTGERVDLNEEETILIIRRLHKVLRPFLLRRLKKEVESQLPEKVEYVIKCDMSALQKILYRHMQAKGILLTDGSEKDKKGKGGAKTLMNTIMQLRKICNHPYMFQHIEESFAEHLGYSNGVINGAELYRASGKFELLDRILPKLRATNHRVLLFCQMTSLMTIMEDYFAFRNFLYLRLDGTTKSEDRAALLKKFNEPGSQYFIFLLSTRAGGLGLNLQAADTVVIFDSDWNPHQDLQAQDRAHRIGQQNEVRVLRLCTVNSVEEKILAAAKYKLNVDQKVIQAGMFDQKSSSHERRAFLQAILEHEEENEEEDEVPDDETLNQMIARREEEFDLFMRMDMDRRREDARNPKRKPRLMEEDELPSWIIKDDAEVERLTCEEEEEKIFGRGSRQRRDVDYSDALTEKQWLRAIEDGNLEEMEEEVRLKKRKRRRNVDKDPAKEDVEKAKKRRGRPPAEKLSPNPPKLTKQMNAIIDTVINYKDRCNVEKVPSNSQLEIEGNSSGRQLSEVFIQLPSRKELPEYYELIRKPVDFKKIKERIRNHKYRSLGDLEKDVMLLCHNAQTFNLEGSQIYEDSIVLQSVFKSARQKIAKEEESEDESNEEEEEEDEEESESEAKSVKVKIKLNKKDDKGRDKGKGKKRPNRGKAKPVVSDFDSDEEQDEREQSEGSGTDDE

Row | SMILES | SMARCA2 (OD, normalised) (5 mg/kg, 48h, background OD 0.03518 subtracted, individual tumours) | SMARCA2 Nuclear OD (5 mg/kg, 48h, individual tumours) | SMARCA2 (OD, normalised) (20 mg/kg, 24h, background OD 0.03518 subtracted, individual tumours) | SMARCA2 Nuclear OD (20 mg/kg, 24h, individual tumours) | SMARCA2 (OD, normalised) (20 mg/kg, 48h, background OD 0.03518 subtracted, individual tumours) | SMARCA2 Nuclear OD (20 mg/kg, 48h, individual tumours) | SMARCA2 (OD, normalised) (100 mg/kg, 48h, background OD 0.03518 subtracted, individual tumours) | SMARCA2 Nuclear OD (100 mg/kg, 48h, individual tumours) | SMARCA2 levels in tumours at the end of the efficacy study, IHC (NCI-H1568 xenograft) | SMARCA2 (OD, normalised) [1] | SMARCA2 Nuclear OD [1] | median decrease of SMARCA2 levels in viable tumour tissue compared to vehicle (NCI-H1568 xenograft, 100 mg/kg p.o., 48 h after treatment) | SMARCA2 (OD, normalised) (NCI-H1568 xenograft, 100 mg/kg po, qd, end of study, individual tumours) | SMARCA2 Nuclear OD (NCI-H1568 xenograft, 100 mg/kg po, qd, end of study, individual tumours, 100 mg/kg) | Avg Stain 1 Nuclear OD (SMARCA2 IHC) [2] | Normalised SMARCA2 (OD) [2]
1 | Cc1ncsc1-c1ccc(C(CCC(C)CCN2CCC(c3ccc4c(c3)n(C3CCCC3)c3nc(=O)c5c(Br)cccc5n43)CC2)NC(=O)C2CC(O)CN2C(=O)C(NC(=O)C2(F)CC2)C(C)(C)C)cc1 (stereo not shown) [ACBI2] | 0.2432 and 0.2157 and 0.2065 and 0.129 and 0.1815 | 0.2784 and 0.2509 and 0.2416 and 0.1642 and 0.2166 | 0.05875 and 0.05583 and 0.06456 and 0.06581 | 0.09393 and 0.09101 and 0.09973 and 0.101 | 0.06607 and 0.09312 and 0.06031 and 0.01981 | 0.1013 and 0.1283 and 0.09549 and 0.05499 | 0.01021 and 0.00729 and 0.00935 and 0.01389 and 0.01189 | 0.04539 and 0.04246 and 0.04453 and 0.04906 and 0.04706 |  |  |  |  |  |  |  | 
2 | Cc1ncsc1-c1ccc([C@H](CCCCCN2CCC(c3ccc4c(c3)n(C3CCCC3)c3nc(=O)c5c(Br)cccc5n43)CC2)NC(=O)[C@@H]2C[C@@H](O)CN2C(=O)[C@@H](NC(=O)C2(F)CC2)C(C)(C)C)cc1 [compound 11] |  |  |  |  |  |  |  |  | undetectable by IHC in most treated tumour samples; also recorded: below the limit of detection | 0.00000 and 0.00917 | 0.03172 and 0.04361 and 0.06213 and 0.0483 | 89% | 0.00000 | 0.03159 and 0.03653 and 0.04664 and 0.03486 | 7.84E-02 and 7.05E-02 and 6.17E-02 and 6.89E-02 | 0.04325 and 0.03531 and 0.02651 and 0.03377
